According to patent US20170020867A1 (priority 2015, published 2017):
Entries after “also recorded” stand apart in the source; their conditions may differ.

Key:
[1] = test system: C Reactive Protein (CRP) level; test: Phase IIa clinical trial: C Reactive Protein (CRP) level; type: in vivo, human
[2] = test system: patients with moderate to severe active Crohn's disease; test: Phase IIa clinical trial: Crohn's Disease Activity Index (CDAI)
[3] = test system: patients with moderate to severe active Crohn's disease; test: Phase IIa clinical trial: safety
[4] = test system: patients with moderate to severe active Crohn's disease; settings: human, in vivo
[5] = test system: human cord blood mast cells; settings: cited from earlier work
[6] = test system: patients with moderate to severe active Crohn's disease; test: Phase IIa clinical trial: corticosteroids decrease; type: in vivo, human; settings: among patients who maintained corticosteroids during the study
Description: Fifteen patients were on corticosteroids prior to study entry.

[7] = week 8, OC dataset, ITT population, All
[8] = week 4, Observed Cases, ITT population
[9] = week 8, Observed Cases, ITT population
[10] = week 8, Observed Cases, ITT population, listed as masitinib
[11] = week 8, patients with CDAI >350 at baseline, ITT population
[12] = week 8, patients with CDAI >350 at baseline, ITT population, listed as masitinib

SMILES: Cc1ccc(NC(=O)c2ccc(CN3CCN(C)CC3)cc2)cc1Nc1nc(-c2cccnc2)cs1 [Masitinib, 4-(4-methylpiperazin-1-ylmethyl)-N-[4-methyl-3-(4-pyridin-3ylthiazol-2-ylamino)phenyl]benzamide]
- CRP level change from baseline ([1]; patients previously treated with anti-TNF): −30%
- CRP absolute change, Median [1, 7]: -19.0 mg/L
- CRP mean absolute change ± SD [1, 7]: -19.7 ± 21.8 mg/L
- mean CDAI decrease ([2]; 4 weeks after the initiation of treatment): 80 units
- additional remission, number of patients ([2]; after the first 8-week period): one
- Complete remission, number of patients ([2]; during the first 8-week period): two
- Complete remission, patients ([2]; patient presenting with CDAI>350 at baseline): 10%
- CDAI enhanced response (at least 100 pts decrease), patients ([2]; week 4, LOCF, ITT population): 5 (31.3%)
- CDAI response (at least 70 pts decrease), patients ([2]; week 4, LOCF, ITT population): 8 (50.0%)
- CDAI enhanced response (at least 100 pts decrease), patients [2, 8]: 5 (31.3%)
- CDAI response (at least 70 pts decrease), patients [2, 8]: 8 (50.0%)
- CDAI response (at least 70 pts decrease), patients ([2]; week 4, Observed Cases, ITT population, listed as masitinib): 50%
- CDAI enhanced response (at least 100 pts decrease), patients ([2]; week 8, LOCF, ITT population): 5 (31.3%)
- CDAI response (at least 70 pts decrease), patients ([2]; week 8, LOCF, ITT population): 7 (43.8%)
- Mean CDAI absolute change from baseline (SD) ([2]; week 8, LOCF, ITT population): −59.9 (112.2)
- Median CDAI absolute change from baseline ([2]; week 8, LOCF, ITT population): −64.5
- Mean CDAI absolute change from baseline (SD) ([2]; week 8, OC, ITT population): −86.0 (128.9)
- Median CDAI absolute change from baseline ([2]; week 8, OC, ITT population): −101.0
- Mean CDAI absolute change from baseline (SD) ([2]; week 8, OC, ITT population, listed as masitinib): −86
- CDAI enhanced response (at least 100 pts decrease), patients ([2]; week 8, OC, ITT, L1): (100.0%)
- Mean CDAI absolute change from baseline ([2]; week 8, OC, ITT, L1): −153.0
- Median CDAI absolute change from baseline ([2]; week 8, OC, ITT, L1): −153.0
- CDAI enhanced response (at least 100 pts decrease), patients ([2]; week 8, OC, ITT, L1, listed as masitinib): 100%
- CDAI enhanced response (at least 100 pts decrease), patients ([2]; week 8, OC, ITT, L2): (0.0%)
- Mean CDAI absolute change from baseline ([2]; week 8, OC, ITT, L2): −50.0
- Median CDAI absolute change from baseline ([2]; week 8, OC, ITT, L2): −50.0
- CDAI enhanced response (at least 100 pts decrease), patients ([2]; week 8, OC, ITT, L3): (57.1%)
- Mean CDAI absolute change from baseline ([2]; week 8, OC, ITT, L3): −86.7
- Median CDAI absolute change from baseline ([2]; week 8, OC, ITT, L3): −103.0
- CDAI enhanced response (at least 100 pts decrease), patients ([2]; week 8, OC, ITT, L3, listed as masitinib): 57%
- CDAI response (at least 70 pts decrease), patients ([2]; week 8, OC, ITT, patients naive or previously treated with corticosteroids (L1)): (100.0%)
- CDAI response (at least 70 pts decrease), patients ([2]; week 8, OC, ITT, patients previously treated with azathioprine (Immurel) or immunotherapy (L2)): (50.0%)
- CDAI response (at least 70 pts decrease), patients ([2]; week 8, OC, ITT, patients previously treated with biological agent (L3)): (71.4%)
- CDAI response (at least 70 pts decrease), patients ([2]; week 8, OC, ITT, patients previously treated with biological agent (L3), listed as masitinib): 71%
- CDAI enhanced response (at least 100 pts decrease), patients [2, 9]: 5 (50.0%)
- CDAI response (at least 70 pts decrease), patients [2, 9]: 7 (70.0%)
- improvement of mean disease activity [2, 9]: 23%
- CDAI enhanced response (at least 100 pts decrease), patients [2, 10]: 50%
- CDAI response (at least 70 pts decrease), patients [2, 10]: 70%
- CDAI absolute change from baseline Mean (SD) [2, 11]: −152.3 (78.5)
- CDAI absolute change from baseline, Median [2, 11]: −116.5
- CDAI enhanced response (at least 100 pts decrease), patients [2, 11]: 4 (66.7%)
- CDAI response (at least 70 pts decrease), patients [2, 11]: 6 (100.0%)
- CDAI enhanced response (at least 100 pts decrease), patients [2, 12]: 67%
- CDAI response (at least 70 pts decrease), patients [2, 12]: 100%
- tolerability ([3]; 8 weeks of observation, 4.5 or 6 mg/kg/day oral in two daily intakes): well tolerated; also recorded: well-tolerated
- patients who experienced at least one adverse event (AE) ([3]; during the treatment): 94%
- adverse event abdominal pain, patients ([3]; human, in vivo): 22%
- adverse event asthenia, patients ([3]; human, in vivo): 33%
- adverse event nausea, patients ([3]; human, in vivo): 28%
- adverse event vomiting, patients ([3]; human, in vivo): 33%
- death [4]: no death
- patients with a serious adverse event ([4]; 8 weeks): 44%
- FcεRI-mediated degranulation [5]: inhibition of FcεRI-mediated degranulation
- patients whose corticosteroid dose was decreased during study [6]: 50%
